Test results from the supplement of paper PMC11208160.

Experiment: recombinant UMI read abundance after kanamycin selection (control-corrected) (log10(CPM+1)); higher = more efficient recombination; extreme values may be limits of the assay; sequences stand for … in AGTGCAGAGAAAATCGGCCAGTTTTCTCTGCCTGCAGTCCGCATGCCGTGGGACCCCTTGGGTTCTAACCTGTTGCCTAGATTTATGCAGCGGACTGCCTTTCTCCCAAAGTGATAAACCGG…AGGTTGGTTTCACT; site = the 11-nt donor
In short: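 Under IPTG (0.07 mM) plus kanamycin, or without selection, Escherichia coli carrying a UMI-tagged donor and donor-binding-loop pair library and a target plasmid for the IS621 bridge recombinase were plated in two replicates. Recombinant UMIs were PCR-amplified across the donor–target junction and sequenced. Counts were converted to CPM, averaged over replicates, scaled by control-derived factors and reported as log10(CPM+1).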
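Further: IS621 bridge recombinase in Escherichia coli cells against a fixed T5 target plasmid.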

| Sequence | recombinant UMI read abundance (log10) |
| --- | --- |
| AGGATGTCATGGACCGGTTTTCCCGGTAATCCGTATTTGCA (site AGGATGTCTTG) | 3.06 |
| AGGCAGGCATGGACCGGTTTTCCCGGTAATCCGTATTTGCA (site AGGAAGACTTG) | 0 |
| AGGCAGGCATGGACCGGTTTTCCCGGTAATCCGTATTTGCA (site AGGCAGGCTTG) | 2.63 |
| AGGCATACATGGACCGGTTTTCCCGGTAATCCGTATTTGCA (site AGGAAGACTTG) | 0 |
| AGGCATACATGGACCGGTTTTCCCGGTAATCCGTATTTGCA (site AGGCATACTTG) | 2.15 |
| AGGCGACCATGGACCGGTTTTCCCGGTAATCCGTATTTGTT (site AGGCGACCTAA) | 0.00859 |
| AGGCTCCCATGGACCGGTTTTCCCGGTAATCCGTATTTGTG (site AGGATCCCTCA) | 0.00474 |
| AGGCTCCCATGGACCGGTTTTCCCGGTAATCCGTATTTGTG (site AGGCTCCCTCA) | 0.0267 |
| AGGCTCCCATGGACCGGTTTTCCCGGTAATCCGTATTTGTG (site AGGGTCCCTCA) | 0.0171 |
| AGGCTCCCATGGACCGGTTTTCCCGGTAATCCGTATTTGTG (site AGGTTCCCTCA) | 0.0277 |
| AGGGACCCATGGACCGGTTTTCCCGGTAATCCGTATTTGAA (site AGGGACCCTTT) | 0.531 |
| AGGGAGACATGGACCGGTTTTCCCGGTAATCCGTATTTGTA (site AGGAAGACTTG) | 0 |
| AGGGAGACATGGACCGGTTTTCCCGGTAATCCGTATTTGTA (site AGGGAGACTTA) | 1.57 |
| AGGGGTCCATGGACCGGTTTTCCCGGTAATCCGTATTTGTA (site AGGGGTCCTTA) | 0.489 |
| AGGTAATCATGGACCGGTTTTCCCGGTAATCCGTATTTGAG (site AGGTAATCTCT) | 2.83 |
| AGGTACACATGGACCGGTTTTCCCGGTAATCCGTATTTGCA (site AGGAAGACTTG) | 0 |
| AGGTACACATGGACCGGTTTTCCCGGTAATCCGTATTTGCA (site AGGTACACTTG) | 2.46 |
| AGGTCAACATGGACCGGTTTTCCCGGTAATCCGTATTTGAT (site AGGTCAACTAT) | 0.075 |
| AGGTCCCCATGGACCGGTTTTCCCGGTAATCCGTATTTGTG (site AGGTACCCTCA) | 0.0207 |
| AGGTCCCCATGGACCGGTTTTCCCGGTAATCCGTATTTGTG (site AGGTCCCCTCA) | 0.0562 |
| AGGTCCCCATGGACCGGTTTTCCCGGTAATCCGTATTTGTG (site AGGTGCCCTCA) | 0.0373 |
| AGGTCCCCATGGACCGGTTTTCCCGGTAATCCGTATTTGTG (site AGGTTCCCTCA) | 0.00496 |
| AGGTCCTCATGGACCGGTTTTCCCGGTAATCCGTATTTGGG (site AGGTCCTCTCC) | 0.0176 |
| AGGTGACCATGGACCGGTTTTCCCGGTAATCCGTATTTGCC (site AGGTGACCTGG) | 0 |
| AGGTGCACATGGACCGGTTTTCCCGGTAATCCGTATTTGAA (site AGGTGCACTTT) | 0.73 |

| Sequence | recombinant UMI read abundance (log10) |
| --- | --- |
| AGGTGCCCATGGACCGGTTTTCCCGGTAATCCGTATTTGTG (site AGGTACCCTCA) | 0.015 |
| AGGTGCCCATGGACCGGTTTTCCCGGTAATCCGTATTTGTG (site AGGTCCCCTCA) | 0.0213 |
| AGGTGCCCATGGACCGGTTTTCCCGGTAATCCGTATTTGTG (site AGGTGCCCTCA) | 0.0128 |
| AGGTGCCCATGGACCGGTTTTCCCGGTAATCCGTATTTGTG (site AGGTTCCCTCA) | 0.755 |
| AGGTGGTCATGGACCGGTTTTCCCGGTAATCCGTATTTGCA (site AGGTGGTCTTG) | 2.62 |
| AGGTTCCCATGGACCGGTTTTCCCGGTAATCCGTATTTGAG (site AGGTTCCCTCA) | 0 |
| AGGTTCCCATGGACCGGTTTTCCCGGTAATCCGTATTTGAG (site AGGTTCCCTCC) | 0.0175 |
| AGGTTCCCATGGACCGGTTTTCCCGGTAATCCGTATTTGAG (site AGGTTCCCTCG) | 0.00792 |
| AGGTTCCCATGGACCGGTTTTCCCGGTAATCCGTATTTGAG (site AGGTTCCCTCT) | 0.00255 |
| AGGTTCCCATGGACCGGTTTTCCCGGTAATCCGTATTTGTC (site AGGTTCCCTAA) | 0.0146 |
| AGGTTCCCATGGACCGGTTTTCCCGGTAATCCGTATTTGTC (site AGGTTCCCTCA) | 0.0034 |
| AGGTTCCCATGGACCGGTTTTCCCGGTAATCCGTATTTGTC (site AGGTTCCCTGA) | 0 |
| AGGTTCCCATGGACCGGTTTTCCCGGTAATCCGTATTTGTC (site AGGTTCCCTTA) | 0 |
| AGGTTCCCATGGACCGGTTTTCCCGGTAATCCGTATTTGTG (site AAGTTCCCTCA) | 0.0108 |
| AGGTTCCCATGGACCGGTTTTCCCGGTAATCCGTATTTGTG (site ACGTTCCCTCA) | 0.0097 |
| AGGTTCCCATGGACCGGTTTTCCCGGTAATCCGTATTTGTG (site AGATTCCCTCA) | 0.438 |
| AGGTTCCCATGGACCGGTTTTCCCGGTAATCCGTATTTGTG (site AGCTTCCCTCA) | 0.0211 |
| AGGTTCCCATGGACCGGTTTTCCCGGTAATCCGTATTTGTG (site AGGATCCCTCA) | 0.163 |
| AGGTTCCCATGGACCGGTTTTCCCGGTAATCCGTATTTGTG (site AGGCTCCCTCA) | 0.149 |
| AGGTTCCCATGGACCGGTTTTCCCGGTAATCCGTATTTGTG (site AGGGTCCCTCA) | 0.0158 |
| AGGTTCCCATGGACCGGTTTTCCCGGTAATCCGTATTTGTG (site AGGTACCCTCA) | 0.00814 |
| AGGTTCCCATGGACCGGTTTTCCCGGTAATCCGTATTTGTG (site AGGTCCCCTCA) | 0.019 |
| AGGTTCCCATGGACCGGTTTTCCCGGTAATCCGTATTTGTG (site AGGTGCCCTCA) | 0.018 |
| AGGTTCCCATGGACCGGTTTTCCCGGTAATCCGTATTTGTG (site AGGTTACCTCA) | 0.00985 |
| AGGTTCCCATGGACCGGTTTTCCCGGTAATCCGTATTTGTG (site AGGTTCACTCA) | 0.0115 |

| Sequence | recombinant UMI read abundance (log10) |
| --- | --- |
| AGGTTCCCATGGACCGGTTTTCCCGGTAATCCGTATTTGTG (site AGGTTCCCTAA) | 0.00843 |
| AGGTTCCCATGGACCGGTTTTCCCGGTAATCCGTATTTGTG (site AGGTTCCCTCA) | 0.152 |
| AGGTTCCCATGGACCGGTTTTCCCGGTAATCCGTATTTGTG (site AGGTTCCCTCC) | 0.014 |
| AGGTTCCCATGGACCGGTTTTCCCGGTAATCCGTATTTGTG (site AGGTTCCCTCG) | 0.328 |
| AGGTTCCCATGGACCGGTTTTCCCGGTAATCCGTATTTGTG (site AGGTTCCCTCT) | 0.0108 |
| AGGTTCCCATGGACCGGTTTTCCCGGTAATCCGTATTTGTG (site AGGTTCCCTGA) | 0 |
| AGGTTCCCATGGACCGGTTTTCCCGGTAATCCGTATTTGTG (site AGGTTCCCTTA) | 0 |
| AGGTTCCCATGGACCGGTTTTCCCGGTAATCCGTATTTGTG (site AGGTTCGCTCA) | 0.0252 |
| AGGTTCCCATGGACCGGTTTTCCCGGTAATCCGTATTTGTG (site AGGTTCTCTCA) | 0.634 |
| AGGTTCCCATGGACCGGTTTTCCCGGTAATCCGTATTTGTG (site AGGTTGCCTCA) | 0.0234 |
| AGGTTCCCATGGACCGGTTTTCCCGGTAATCCGTATTTGTG (site AGGTTTCCTCA) | 0.00972 |
| AGGTTCCCATGGACCGGTTTTCCCGGTAATCCGTATTTGTG (site AGTTTCCCTCA) | 0.0518 |
| AGGTTCCCATGGACCGGTTTTCCCGGTAATCCGTATTTGTG (site ATGTTCCCTCA) | 0.0101 |
| AGGTTCCCATGGACCGGTTTTCCCGGTAATCCGTATTTGTG (site CGGTTCCCTCA) | 0.0101 |
| AGGTTCCCATGGACCGGTTTTCCCGGTAATCCGTATTTGTG (site GGGTTCCCTCA) | 0.0086 |
| AGGTTCCCATGGACCGGTTTTCCCGGTAATCCGTATTTGTG (site TGGTTCCCTCA) | 0.00656 |
| AGTAAGGCATGGACCGGTTTTCCCGGTAATCCGTATTTGAT (site AGTAAGGCTAT) | 2.27 |
| AGTAATTCATGGACCGGTTTTCCCGGTAATCCGTATTTGAC (site AGTAATTCTGT) | 0.17 |
| AGTACACCATGGACCGGTTTTCCCGGTAATCCGTATTTGAG (site AGTACACCTCT) | 0.0245 |
| AGTAGCCCATGGACCGGTTTTCCCGGTAATCCGTATTTGGA (site AGTAGCCCTTC) | 0.01 |
| AGTCCATCATGGACCGGTTTTCCCGGTAATCCGTATTTGGG (site AGTCCATCTCC) | 0.00252 |
| AGTCCCACATGGACCGGTTTTCCCGGTAATCCGTATTTGGA (site AGTCCCACTTC) | 0.296 |
| AGTCCTTCATGGACCGGTTTTCCCGGTAATCCGTATTTGGG (site AGTCCTTCTCC) | 0.0141 |
| AGTCTAGCATGGACCGGTTTTCCCGGTAATCCGTATTTGTT (site AGACTAGCTAA) | 0.0182 |
| AGTCTAGCATGGACCGGTTTTCCCGGTAATCCGTATTTGTT (site AGCCTAGCTAA) | 0.0159 |
